Data on 13 molecules can be found in patent US12227501B2, “3-amino-2-[2-(acylamino)pyridin-4-yl]-1,5,6,7-tetrahydro-4h-pyrrolo[3,2-c]pyridin-4-one as CSNK1 inhibitors” (Bayer Aktiengesellschaft, priority 2019, dated 2025).

The structures appear in SMILES notation. “And” between values parts separate entries of the source, which are not always exact repeats. Equal entries are not always repeated. Structures can show the parent of a compound that is named as a salt. Where two headings read alike, the source gives them in different places. A value given as a limit tells only on which side of the number the result lay.

Format in all cases: biochemical
Experiment [1] deals with T1, human CSNK1A1 (Homo sapiens (Human), UniProt P48729). Description: CSNK1A1 Assay 2 (ADP-Glo, 1 μM ATP). Particulars: substrate biotin-Ahx-KRRRAL-pS-VASLPGL, read-out: CSNK1A1 Assay 2 IC50 [mol/l] (median). The essentials: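 Full-length human CSNK1A1 as an N-terminal GST fusion (baculovirus/insect cells) with biotinylated peptide substrate biotin-Ahx-KRRRAL-pS-VASLPGL and 1 μM ATP, in HEPES pH 7.5 buffer. Compounds were pre-incubated with enzyme (~0.0375 ng/μL) for 15 min at 22 °C. Generated ADP was read by ADP-Glo luminescence as the activity measure.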

Experiment [2] addresses human CSNK1D (Homo sapiens (Human), UniProt P48730). Description: CSNK1D Assay (ADP-Glo, 1 μM ATP). Particulars: read-out: CSNK1D IC50 [mol/l] (median). The essentials: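 GST-tagged full-length human CSNK1D from baculovirus-infected insect cells, typically ~0.5 ng/μL, with biotinylated peptide substrate and 1 μM ATP in HEPES pH 7.5 buffer. Compound is preincubated with enzyme 15 min at 22 °C. ADP formed is quantified by ADP-Glo luminescence.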
In general terms: In ADP-Glo the light output rises with the ADP produced.

Experiment [3] addresses wild-type Epidermal Growth Factor Receptor (EGFR) (Homo sapiens (Human), UniProt P00533). Description: WT-EGFR Kinase Assay (TR-FRET, 2 mM ATP). Background: TR-FRET usually uses a lanthanide donor and a delayed reading to cut background.
The target in experiment [4] is T1, human CSNK1A1. Description: CSNK1A1 High ATP Assay (ADP-Glo, 1 mM ATP). The note with it: read-out: CSNK1A1 high ATP assay IC50 [mol/l] (median). The essentials: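 GST-tagged full-length human CSNK1A1 from baculovirus-infected insect cells (typically about 0.4 ng/μL), pre-incubated with compound 15 min at 22 °C. Reaction with biotinylated peptide biotin-Ahx-KRRRAL-pS-VASLPGL at 1 mM ATP. ADP formed read by ADP-Glo luminescence.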

Setting [5] is: EGFR Wildtyp- 2 mM ATP IC50 [mol/l] (median).

Chain of wild-type Epidermal Growth Factor Receptor (EGFR) (P00533 669-1210): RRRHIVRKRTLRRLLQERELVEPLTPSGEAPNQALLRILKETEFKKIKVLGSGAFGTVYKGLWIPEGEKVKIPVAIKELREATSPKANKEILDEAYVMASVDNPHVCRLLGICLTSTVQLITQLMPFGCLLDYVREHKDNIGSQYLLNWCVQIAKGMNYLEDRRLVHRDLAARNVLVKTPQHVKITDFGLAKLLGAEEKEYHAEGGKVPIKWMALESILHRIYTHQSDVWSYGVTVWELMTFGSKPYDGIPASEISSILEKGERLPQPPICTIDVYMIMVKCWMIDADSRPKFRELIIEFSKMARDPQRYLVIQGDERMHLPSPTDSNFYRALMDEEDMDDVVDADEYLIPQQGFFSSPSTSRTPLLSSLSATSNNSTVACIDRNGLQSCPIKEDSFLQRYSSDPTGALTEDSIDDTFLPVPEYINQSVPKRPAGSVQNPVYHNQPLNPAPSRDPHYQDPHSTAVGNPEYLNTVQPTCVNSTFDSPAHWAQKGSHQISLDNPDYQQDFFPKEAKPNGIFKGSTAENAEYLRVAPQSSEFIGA
Chain of human CSNK1D (P48730 whole entry): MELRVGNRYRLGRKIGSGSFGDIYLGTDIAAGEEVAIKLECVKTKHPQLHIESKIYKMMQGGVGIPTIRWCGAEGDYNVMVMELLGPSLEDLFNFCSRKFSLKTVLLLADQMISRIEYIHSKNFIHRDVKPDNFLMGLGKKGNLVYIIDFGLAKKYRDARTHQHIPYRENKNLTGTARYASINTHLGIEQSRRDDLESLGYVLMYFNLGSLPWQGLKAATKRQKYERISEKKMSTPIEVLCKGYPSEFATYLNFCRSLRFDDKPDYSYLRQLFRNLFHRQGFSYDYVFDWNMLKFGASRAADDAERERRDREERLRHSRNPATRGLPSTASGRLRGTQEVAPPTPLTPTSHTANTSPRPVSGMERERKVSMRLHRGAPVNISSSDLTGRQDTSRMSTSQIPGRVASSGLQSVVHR
T1 sequence (P48729 whole entry, the tested form may be a part): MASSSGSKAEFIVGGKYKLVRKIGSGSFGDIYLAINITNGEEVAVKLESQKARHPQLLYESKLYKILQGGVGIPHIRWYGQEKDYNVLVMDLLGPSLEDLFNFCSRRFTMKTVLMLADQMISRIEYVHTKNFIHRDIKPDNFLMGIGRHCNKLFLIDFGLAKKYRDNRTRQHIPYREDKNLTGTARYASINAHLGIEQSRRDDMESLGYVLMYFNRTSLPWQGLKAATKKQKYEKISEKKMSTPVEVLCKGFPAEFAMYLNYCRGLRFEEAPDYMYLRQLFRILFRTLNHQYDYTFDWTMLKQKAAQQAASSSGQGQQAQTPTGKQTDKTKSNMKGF

For the molecule `CC1(C)Cc2[nH]c(-c3ccnc(NC(=O)C(CC(F)F)c4ccc(F)cc4)c3)c(Nc3cccc(F)n3)c2C(=O)N1` (racemic) [Example 128, 4,4-difluoro-2-(4-fluorophenyl)-N-(4-{3-[(6-fluoropyridin-2-yl)amino]-6,6-dimethyl-4-oxo-4,5,6,7-tetrahydro-1H-pyrrolo[3,2-c]pyridin-2-yl}pyridin-2-yl)butanamide (Racemate)], the IC50 in experiment [1] is 7.16 nM; in experiment [2], 11.4 nM; in experiment [3] (setting [5]) it was more than 20000 nM; in experiment [4], 31.4 nM.
For `Cc1ccccc1Nc1c(-c2ccnc(NC(=O)C(C)c3ccc(F)cc3)c2)[nH]c2c1C(=O)NC(C)(C)C2` (racemic) [Example 132, N-{4-[6,6-dimethyl-3-(2-methylanilino)-4-oxo-4,5,6,7-tetrahydro-1H-pyrrolo[3,2-c]pyridin-2-yl]pyridin-2-yl}-2-(4-fluorophenyl)propanamide (Racemate)], the IC50 in experiment [1] was 24.3 nM; in experiment [2] it was 32.9 nM; in experiment [3] (setting [5]), more than 20000 nM; in experiment [4] it was 915 nM.
As for `Cc1ccccc1Nc1c(-c2ccnc(NC(=O)C(CC(F)F)c3ccc(F)cc3)c2)[nH]c2c1C(=O)NC(C)(C)C2` (racemic) [Example 135, N-{4-[6,6-dimethyl-3-(2-methylanilino)-4-oxo-4,5,6,7-tetrahydro-1H-pyrrolo[3,2-c]pyridin-2-yl]pyridin-2-yl}-4,4-difluoro-2-(4-fluorophenyl)butanamide (Racemate)], the IC50 was 25.8 nM in experiment [1], 19.9 nM in experiment [2], more than 20000 nM in experiment [3] (setting [5]) and 365 nM in experiment [4].
Consider `CC1(C)Cc2[nH]c(-c3ccnc(NC(=O)C(CNC(=O)OC(C)(C)C)c4ccc(F)cc4)c3)c(Nc3ccccc3)c2C(=O)N1` (racemic) [Example 138, tert-butyl [3-{[4-(3-anilino-6,6-dimethyl-4-oxo-4,5,6,7-tetrahydro-1H-pyrrolo[3,2-c]pyridin-2-yl)pyridin-2-yl]amino}-2-(4-fluorophenyl)-3-oxopropyl]carbamate (Racemate)], for which the IC50 worked out at 16.6 nM in experiment [1], 22.4 nM in experiment [2], 11100 nM in experiment [3] (setting [5]) and 430 nM in experiment [4].
For `CC1(C)Cc2[nH]c(-c3ccnc(NC(=O)C(CN)c4ccc(F)cc4)c3)c(Nc3ccccc3)c2C(=O)N1` (racemic) [Example 139, 3-amino-N-[4-(3-anilino-6,6-dimethyl-4-oxo-4,5,6,7-tetrahydro-1H-pyrrolo[3,2-c]pyridin-2-yl)pyridin-2-yl]-2-(4-fluorophenyl)propanamide-hydrogen chloride salt (Racemate)], in that order: 3.21 nM, 7.73 nM, 681 nM and 41.4 nM.
The like results for `Cc1ccccc1Nc1c(-c2ccnc(NC(=O)C(CC(F)F)c3ccc(F)cc3)c2)[nH]c2c1C(=O)NC1(CCC1)C2` (racemic) [Example 143, 4,4-difluoro-2-(4-fluorophenyl)-N-{4-[3′-(2-methylanilino)-4′-oxo-1′,4′,5′,7′-tetrahydrospiro[cyclobutane-1,6′-pyrrolo[3,2-c]pyridin]-2′-yl]pyridin-2-yl}butanamide (Racemate)] were, in that order, 16.7 nM, 18.4 nM, more than 20000 nM and 32 nM.
For the molecule `O=C1NC2(CC2)Cc2[nH]c(-c3ccnc(NC(=O)C(CC(F)F)c4ccc(F)cc4)c3)c(Nc3ccccc3)c21` (racemic) [Example 147, N-[4-(3′-anilino-4′-oxo-1′,4′,5′,7′-tetrahydrospiro[cyclopropane-1,6′-pyrrolo[3,2-c]pyridin]-2′-yl)pyridin-2-yl]-4,4-difluoro-2-(4-fluorophenyl)butanamide (Racemate)], the IC50 is 6.2 nM in experiment [1], 11.6 nM in experiment [2], 268 nM in experiment [3] (setting [5]) and 19.2 nM in experiment [4].
For the molecule `CC(C(=O)Nc1cc(-c2[nH]c3c(c2Nc2ccccc2)C(=O)N(C)C2(CCC2)C3)ccn1)c1ccc(F)cc1` (racemic) [Example 157, N-[4-(3′-anilino-5′-methyl-4′-oxo-1′,4′,5′,7′-tetrahydrospiro[cyclobutane-1,6′-pyrrolo[3,2-c]pyridin]-2′-yl)pyridin-2-yl]-2-(4-fluorophenyl)propanamide (Racemate)], the IC50 is 8.76 nM in experiment [1], 15.8 nM in experiment [2], more than 20000 nM in experiment [3] (setting [5]) and 50.8 nM in experiment [4].
For the molecule `CN1C(=O)c2c([nH]c(-c3ccnc(NC(=O)C(CC(F)F)c4ccc(F)cc4)c3)c2Nc2ccccc2)CC12CCC2` (racemic) [Example 160, N-[4-(3′-anilino-5′-methyl-4′-oxo-1′,4′,5′,7′-tetrahydrospiro[cyclobutane-1,6′-pyrrolo[3,2-c]pyridin]-2′-yl)pyridin-2-yl]-4,4-difluoro-2-(4-fluorophenyl)butanamide (Racemate)], the IC50 in experiment [1] is 13.3 nM; in experiment [2], 15.8 nM; in experiment [3] (setting [5]) it was more than 20000 nM; in experiment [4], 27.2 nM.
The like results for `CC(C(=O)Nc1cc(-c2[nH]c3c(c2Nc2ccccc2)C(=O)NCC3)ccn1)c1ccc(F)cc1` (single isomer, unassigned) [Example 10, N-[4-(3-anilino-4-oxo-4,5,6,7-tetrahydro-1H-pyrrolo[3,2-c]pyridin-2-yl)pyridin-2-yl]-2-(4-fluorophenyl)propanamide] were, in that order, 4.61 nM, 14 nM, 12400 nM and 25.5 nM.
For `CC(C(=O)Nc1cc(-c2[nH]c3c(c2Nc2ccccc2)C(=O)NCC3)ccn1)c1ccc(F)cc1` (single isomer, unassigned) [Example 11, N-[4-(3-anilino-4-oxo-4,5,6,7-tetrahydro-1H-pyrrolo[3,2-c]pyridin-2-yl)pyridin-2-yl]-2-(4-fluorophenyl)propanamide], in that order: 30.4 nM, 30.8 nM, 2290 nM and 3970 nM.
Take `CC(C(=O)Nc1cc(-c2[nH]c3c(c2Nc2ccccc2Cl)C(=O)NCC3)ccn1)c1ccc(F)cc1` (single isomer, unassigned) [Example 15, N-{4-[3-(2-chloroanilino)-4-oxo-4,5,6,7-tetrahydro-1H-pyrrolo[3,2-c]pyridin-2-yl]pyridin-2-yl}-2-(4-fluorophenyl)propanamide]: the IC50 in experiment [1] was 42.5 nM; in experiment [2], 38.6 nM; in experiment [3] (setting [5]), more than 20000 nM; in experiment [4] it was 10700 nM and > 5710 nM.
As to `CC(C(=O)Nc1cc(-c2[nH]c3c(c2Nc2ccccc2Cl)C(=O)NCC3)ccn1)c1ccc(F)cc1` (single isomer, unassigned) [Example 16, N-{4-[3-(2-chloroanilino)-4-oxo-4,5,6,7-tetrahydro-1H-pyrrolo[3,2-c]pyridin-2-yl]pyridin-2-yl}-2-(4-fluorophenyl)propanamide], the IC50 is 2.57 nM in experiment [1], 8 nM in experiment [2], more than 20000 nM in experiment [3] (read-out: EGFR Wildtyp- 2 mM ATP IC50 [mol/l] (median)) and 102 nM in experiment [4].
